Data: the CheMixHub viscosity set

Assay: xn = mol fraction of the nth substance listed

C[N+](=O)[O-] + CC(C)(C)O
viscosity [mPa·s], 101.33 kPa
Settings | 298.15 K | 303.15 K | 313.15 K
x2 = 0.05 | 0.609 | 0.569 | 0.511
x2 = 0.1002 | 0.611 | 0.567 | 0.506
x2 = 0.1502 | 0.642 | 0.573 | 0.508
x2 = 0.2 | 0.644 | 0.587 | 0.517
x2 = 0.2499 | 0.674 | 0.609 | 0.531
x2 = 0.3 | 0.749 | 0.638 | 0.549
x2 = 0.3503 | 0.793 | 0.672 | 0.573
x2 = 0.4 | 0.87 | 0.714 | 0.601
x2 = 0.4501 | 0.894 | 0.761 | 0.633
x2 = 0.5001 | 0.972 | 0.819 | 0.671
x2 = 0.55 | 1.072 | 0.886 | 0.717
x2 = 0.6001 | 1.154 | 0.962 | 0.811
x2 = 0.6499 | 1.219 | 1.057 | 0.829
x2 = 0.7 | 1.361 | 1.174 | 0.885
x2 = 0.75 | 1.557 | 1.32 | 0.966
x2 = 0.8 | 1.776 | 1.491 | 1.106
x2 = 0.85 | 2.079 | 1.72 | 1.244
x2 = 0.8999 | 2.51 | 2.05 | 1.442
x2 = 0.95 | 3.194 | 2.527 | 1.697

Cc1cccc(O)c1 + Nc1ccccc1
298.15 K, 101 kPa
Settings | viscosity [mPa·s]
x1 = 0.3 | 6.799
x1 = 0.374 | 8.194
x1 = 0.461 | 9.622
x1 = 0.549 | 11.12
x1 = 0.631 | 12.2
x1 = 0.778 | 12.31

Cc1cccc(O)c1 + O=Cc1ccccc1
308.15 K, 101.33 kPa
Settings | viscosity [mPa·s]
x2 = 0.103 | 5.863
x2 = 0.308 | 3.972
x2 = 0.398 | 3.45
x2 = 0.545 | 2.597
x2 = 0.602 | 2.3
x2 = 0.704 | 1.844
x2 = 0.903 | 1.37
